According to ChEMBL document CHEMBL1201862, “PubChem BioAssay data set” (2004):
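How tested: cells in 96-well plates exposed to compound for 48 hours at five concentrations. GI50: concentration for 50% inhibition of growth.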 Active and inactive are the calls of the source. Rule as the data show it: active = GI50 up to about 1.1 µM and inactive = higher.

Key:
Assay in all cases: NCI tumour cell line growth inhibition, 48 h
A498 = test system: A498
A549 = test system: A549
ACHN = test system: ACHN
EKVX = test system: EKVX
IGROV-1 = test system: IGROV-1
LOX IMVI = test system: LOX IMVI
M14 = test system: M14
MOLT-4 = test system: MOLT-4
Malme-3M = test system: Malme-3M
NCI-H23 = test system: NCI-H23
OVCAR-3 = test system: OVCAR-3
OVCAR-5 = test system: OVCAR-5
RPMI-8226 = test system: RPMI-8226
SK-MEL-28 = test system: SK-MEL-28
SK-MEL-2 = test system: SK-MEL-2
SNB-19 = test system: SNB-19
U-251 = test system: U-251
SF-295 = test system: SF-295

Measured: GI50

Cc1ccc(S(=O)(=O)NC(=O)NC23CC4CC(CC(F)(C4)C2)C3)cc1
inactive: A498 > 100 µM | A549 > 100 µM | ACHN > 100 µM | EKVX > 100 µM | IGROV-1 > 100 µM | LOX IMVI > 100 µM | M14 > 100 µM | MOLT-4 > 100 µM | Malme-3M > 100 µM | NCI-H23 > 100 µM | OVCAR-3 > 100 µM | OVCAR-5 > 100 µM | RPMI-8226 > 100 µM | SK-MEL-28 > 100 µM | SK-MEL-2 > 100 µM | SNB-19 > 100 µM | U-251 > 100 µM

O=C1CCCCC1S(=O)(=O)c1ccccc1 (stereo not drawn)
inactive: A498 > 100 µM | A549 > 100 µM | ACHN > 100 µM | EKVX > 100 µM | IGROV-1 > 100 µM | LOX IMVI > 100 µM | M14 > 100 µM | MOLT-4 > 100 µM | Malme-3M > 100 µM | NCI-H23 > 100 µM | OVCAR-3 > 100 µM | OVCAR-5 > 100 µM | RPMI-8226 > 100 µM | SF-295 > 100 µM | SK-MEL-28 > 100 µM | SK-MEL-2 > 100 µM | SNB-19 > 100 µM | U-251 > 100 µM

CCCCCCCCCCCCCCCCOCC(CN(C)CCN(C)C)OCCCCCCCCCCCCCCCC (stereo not drawn)
inactive: A498 > 100 µM | A549 > 100 µM | ACHN > 100 µM | EKVX > 100 µM | IGROV-1 > 100 µM | LOX IMVI > 100 µM | M14 > 100 µM | MOLT-4 > 100 µM | Malme-3M > 100 µM | NCI-H23 > 100 µM | OVCAR-3 > 100 µM | OVCAR-5 > 100 µM | RPMI-8226 > 100 µM | SF-295 > 100 µM | SK-MEL-28 > 100 µM | SK-MEL-2 > 100 µM | SNB-19 > 100 µM | U-251 > 100 µM

CCCCCCCCCCSC(=O)NC
inactive: A498 37.5 µM | A549 37.8 µM | ACHN 40.4 µM | EKVX 27.2 µM | IGROV-1 79.8 µM | LOX IMVI 32.9 µM | M14 22.4 µM | MOLT-4 18.5 µM | Malme-3M 36.3 µM | NCI-H23 30.5 µM | OVCAR-3 54.2 µM | OVCAR-5 80.9 µM | RPMI-8226 21.9 µM | SF-295 50.1 µM | SK-MEL-28 26.3 µM | SK-MEL-2 22.5 µM | SNB-19 28.8 µM | U-251 25.8 µM

O=C(c1ccc(Cl)cc1)c1ccc(OCCCOc2ccc(C(=O)c3ccc(Cl)cc3)cc2Cl)c(Cl)c1
inactive: A549 > 100 µM | ACHN > 100 µM | EKVX > 100 µM | IGROV-1 > 100 µM | LOX IMVI > 100 µM | M14 > 100 µM | MOLT-4 > 100 µM | Malme-3M > 100 µM | NCI-H23 > 100 µM | OVCAR-3 > 100 µM | OVCAR-5 > 100 µM | RPMI-8226 > 100 µM | SF-295 > 100 µM | SK-MEL-28 > 100 µM | SK-MEL-2 > 100 µM | SNB-19 > 100 µM | U-251 > 100 µM

C/C(=N\N=C(N)N)c1sc(-c2nc(C)c(/C(C)=N/N=C(N)N)s2)nc1C
inactive: A498 > 100 µM | A549 > 100 µM | ACHN > 100 µM | EKVX > 100 µM | IGROV-1 > 100 µM | LOX IMVI > 42.5 µM | M14 > 100 µM | MOLT-4 > 57.9 µM | Malme-3M > 100 µM | NCI-H23 > 100 µM | OVCAR-3 > 85.5 µM | OVCAR-5 > 100 µM | RPMI-8226 39.3 µM | SF-295 > 100 µM | SK-MEL-28 > 100 µM | SK-MEL-2 > 100 µM | SNB-19 > 100 µM | U-251 > 95.3 µM

C=C(C)C1Cc2c(cc(OC)c3c(=O)c4ccccc4n(C)c23)O1 (stereo not drawn)
inactive: A498 > 100 µM | A549 > 100 µM | ACHN 58.3 µM | EKVX > 100 µM | IGROV-1 > 100 µM | LOX IMVI 47.3 µM | M14 > 100 µM | Malme-3M > 100 µM | NCI-H23 > 100 µM | OVCAR-3 > 100 µM | OVCAR-5 > 100 µM | RPMI-8226 > 100 µM | SF-295 > 100 µM | SK-MEL-28 49 µM | SK-MEL-2 > 100 µM | SNB-19 > 100 µM | U-251 > 100 µM

CSc1n[n+]2c(s1)SCCC2
inactive: A549 20.5 µM | ACHN > 100 µM | IGROV-1 25.8 µM | LOX IMVI > 100 µM | M14 > 100 µM | MOLT-4 > 100 µM | Malme-3M > 100 µM | NCI-H23 > 100 µM | OVCAR-3 > 100 µM | OVCAR-5 > 100 µM | SF-295 > 100 µM | SK-MEL-28 > 100 µM | SNB-19 > 100 µM | U-251 > 100 µM

O[C@]12c3ccccc3C1CCCC2N1CCOCC1 (stereo partly drawn)
inactive: A549 > 100 µM | ACHN > 100 µM | EKVX > 100 µM | LOX IMVI > 100 µM | M14 > 100 µM | MOLT-4 > 100 µM | Malme-3M > 100 µM | NCI-H23 > 100 µM | RPMI-8226 > 100 µM | SF-295 > 100 µM | SK-MEL-28 > 100 µM | SK-MEL-2 > 100 µM | SNB-19 > 100 µM | U-251 > 100 µM

COc1cc(CC2c3cc(OC)c(OC)cc3CCN2C)ccc1O (stereo not drawn)
inactive: A498 > 100 µM | A549 > 100 µM | ACHN > 100 µM | EKVX > 100 µM | M14 > 100 µM | MOLT-4 > 100 µM | Malme-3M > 100 µM | NCI-H23 > 100 µM | OVCAR-3 > 100 µM | OVCAR-5 > 100 µM | RPMI-8226 > 100 µM | SF-295 > 100 µM | SK-MEL-28 > 100 µM | SK-MEL-2 > 100 µM | SNB-19 > 100 µM | U-251 > 100 µM

COc1cc2c(cc1OC)[C@H]1C(COC(=O)Nc3ccccc3)CN1CC2 (stereo partly drawn)
inactive: A498 70.6 µM | A549 > 100 µM | ACHN > 100 µM | IGROV-1 > 100 µM | LOX IMVI 57.9 µM | M14 53.8 µM | MOLT-4 95.5 µM | Malme-3M > 100 µM | NCI-H23 > 100 µM | OVCAR-3 > 100 µM | OVCAR-5 > 100 µM | RPMI-8226 > 100 µM | SF-295 > 100 µM | SK-MEL-28 > 100 µM | SK-MEL-2 > 100 µM | SNB-19 > 100 µM | U-251 > 100 µM

COC(=O)C(C(=O)C(=O)Nc1ccc(OC)cc1[N+](=O)[O-])c1nc2cc(C)c(C)cc2nc1O (stereo not drawn)
inactive: A498 > 100 µM | A549 > 100 µM | ACHN > 100 µM | EKVX 74.6 µM | IGROV-1 > 100 µM | LOX IMVI > 100 µM | M14 > 100 µM | Malme-3M > 100 µM | NCI-H23 > 100 µM | OVCAR-3 > 100 µM | SF-295 > 100 µM | SK-MEL-28 > 100 µM | SNB-19 > 100 µM | U-251 > 100 µM
